For the first assay, the target named is NLRP3 inflammasome (Homo sapiens (Human), UniProt Q96P20). The assay is described as follows: Evaluation of NLRP3 inflammasome inhibitory activity (inhibition of IL-1β production in THP1-Null cells, LPS/Nigericin).
NLRP3 inflammasome, sequence (Q96P20 whole entry): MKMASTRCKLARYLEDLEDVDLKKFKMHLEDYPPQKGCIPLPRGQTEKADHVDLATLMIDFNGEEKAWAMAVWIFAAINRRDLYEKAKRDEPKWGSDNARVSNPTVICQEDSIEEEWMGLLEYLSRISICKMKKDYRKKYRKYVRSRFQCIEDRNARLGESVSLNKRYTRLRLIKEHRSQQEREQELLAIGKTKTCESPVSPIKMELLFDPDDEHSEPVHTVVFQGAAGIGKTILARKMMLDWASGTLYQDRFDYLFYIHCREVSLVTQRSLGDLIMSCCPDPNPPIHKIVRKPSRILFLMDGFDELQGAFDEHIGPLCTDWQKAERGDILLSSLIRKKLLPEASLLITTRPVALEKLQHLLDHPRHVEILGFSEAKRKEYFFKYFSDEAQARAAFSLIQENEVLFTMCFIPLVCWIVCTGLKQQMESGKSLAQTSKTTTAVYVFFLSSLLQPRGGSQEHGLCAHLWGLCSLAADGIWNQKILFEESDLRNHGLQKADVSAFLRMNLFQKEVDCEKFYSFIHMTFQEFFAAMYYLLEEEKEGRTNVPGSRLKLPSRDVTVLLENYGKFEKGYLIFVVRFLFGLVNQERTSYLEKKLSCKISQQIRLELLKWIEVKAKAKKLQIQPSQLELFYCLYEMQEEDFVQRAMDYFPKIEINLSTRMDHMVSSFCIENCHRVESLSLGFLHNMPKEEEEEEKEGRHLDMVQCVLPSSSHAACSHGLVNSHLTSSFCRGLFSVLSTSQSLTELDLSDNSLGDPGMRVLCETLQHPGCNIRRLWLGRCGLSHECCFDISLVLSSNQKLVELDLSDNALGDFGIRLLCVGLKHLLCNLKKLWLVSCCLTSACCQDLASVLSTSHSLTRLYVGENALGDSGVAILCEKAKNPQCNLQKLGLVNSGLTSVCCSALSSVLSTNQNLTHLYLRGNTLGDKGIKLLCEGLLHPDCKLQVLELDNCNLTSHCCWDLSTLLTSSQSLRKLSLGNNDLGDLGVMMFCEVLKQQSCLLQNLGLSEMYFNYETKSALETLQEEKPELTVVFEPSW
Details: not given
Compound `Cc1ccc(C(F)(F)F)cc1Nc1nc(C(=O)NS(=O)(=O)N2CCCN(C(=O)C3CCOC3)CC2)co1` (racemic) [Example 2-216] registered a 50% inhibitory concentration (IC50) of 180 nM. The same measure, in the same setting: next, `CN(C)C1CCN(S(=O)(=O)NC(=O)c2coc(Nc3c4c(c(F)c5c3CCC5)CCC4)n2)C1` (racemic) [Example 74]: 180 nM; `O=C(NS(=O)(=O)N1CCC(O)C1)c1coc(Nc2c3c(c(F)c4c2CCC4)CCC3)n1` (racemic) [Example 52]: 32 nM; `COC1COCCN(S(=O)(=O)NC(=O)c2coc(Nc3cc(C(C)C)ccc3C)n2)C1` (racemic) [Example 2-294]: 37 nM. The same measure, in the same setting: next, `Cc1ccc(C(F)(F)F)cc1Nc1nc(C(=O)NS(=O)(=O)N2CCCC(n3cccn3)CC2)co1` (racemic) [Example 2-273]: 24 nM. Regarding `Cc1ccc(C(F)(F)F)cc1Nc1nc(C(=O)NS(=O)(=O)N2CCCC(O)CC2)co1` (racemic) [Example 2-156], half-maximal inhibition (IC50) was put at 39 nM.

Still in this assay, the particulars now being: IL-1β production in THP1-Null cells, PMA/LPS primed, Nigericin 7.5 μmol/L.
As to `COCCOC[C@@H]1CCN(S(=O)(=O)NC(=O)c2coc(Nc3cc(C)c(F)cc3C)n2)CCO1` [Example 3-005, (S)-2-((4-fluoro-2,5-dimethylphenyl)amino)-N-((7-((2-methoxyethoxy)methyl)-1,4-oxazepan-4-yl)sulfonyl)oxazole-4-carboxamide], 40 nM corresponded to half-maximal inhibition (IC50). Turning to `O=C(NS(=O)(=O)N1C[C@H]2COC[C@H]2C1)c1coc(Nc2c3c(c(Cl)c4c2CCC4)CCC3)n1` [Example 61], inhibition was half-maximal at 170 nM (IC50).

As for `Cc1cc(Nc2nc(C(=O)NS(=O)(=O)N3CCOC(COC(C)C)CC3)co2)c(C)cc1F` (stereo not drawn) [Example 3-003], the IC50 came to 21 nM. The compound `O=C(NS(=O)(=O)N1CCOCC1)c1coc(Nc2c3c(c(F)c4c2CCC4)CCC3)n1` [Example 53] returned an IC50 of less than 30 nM. The same measure, in the same setting: next, `COCCN(C(C)C)S(=O)(=O)NC(=O)c1coc(Nc2c3c(c(Cl)c4c2CCC4)CCC3)n1` [Example 39]: 220 nM; `CC(C)N(C)S(=O)(=O)NC(=O)c1coc(Nc2c3c(cc4c2CCC4)CCC3)n1` [Example 21]: 43 nM. The same measure, in the same setting: next, `CN1CCN(S(=O)(=O)NC(=O)c2coc(Nc3c4c(c(F)c5c3CCC5)CCC4)n2)CC1=O` [Example 64]: 5700 nM; `O=C(NS(=O)(=O)N1CCOCC12CCC2)c1cnc(Nc2c3c(cc4c2CCC4)CCC3)o1` [Example 9]: 210 nM. Compound `Cc1ccc2c(c1Nc1nc(C(=O)NS(=O)(=O)N3CCOCC3)co1)CCC2` [Example 32] showed a 50% inhibitory concentration (IC50) of 150 nM.

`O=C(NS(=O)(=O)N1CCCC1)c1coc(Nc2c3c(cc4c2CCC4)CCC3)n1` [Example 22] gave a 50% inhibitory concentration (IC50) of less than 30 nM. On the same count and under the same terms, next, `Cc1ccc(C(F)(F)F)cc1Nc1nc(C(=O)NS(=O)(=O)N2CCC(S(=O)(=O)N(C)C)CC2)co1` [Example 75]: 32 nM; `O=C(NS(=O)(=O)N1CCOCC1)c1cnc(Nc2c3c(cc4c2CCC4)CCC3)o1` [Example 2]: less than 30 nM; `CN(C)S(=O)(=O)NC(=O)c1cnc(Nc2c3c(c(Cl)c4c2CCC4)CCC3)o1` [Example 14]: 97 nM.

Staying with this assay, now noted: inhibition of IL-1β production in THP1-Null cells.
With `Cc1ccc(C(C)(C)C)cc1Nc1nc(C(=O)NS(=O)(=O)N(C)C)co1` [Example 2-069], the midpoint of inhibition, the IC50, lay at 66 nM. The compound `Cc1ccc(C2(C)CC2)cc1Nc1nc(C(=O)NS(=O)(=O)N(C)C)co1` [Example 2-044] yielded an IC50 of 60 nM. Same read-out and setting: next, `CCCCC(=O)N1CCCN(S(=O)(=O)NC(=O)c2coc(Nc3cc(C(F)(F)F)ccc3C)n2)CC1` [Example 2-182]: 10 nM; `Cc1ccc(C(F)(F)F)cc1Nc1nc(C(=O)NS(=O)(=O)N2CCCN(S(=O)(=O)N(C)C)CC2)co1` [Example 2-099]: 21 nM. On the same count and under the same terms, next, `Cc1ccc(C(C)C)cc1Nc1nc(C(=O)NS(=O)(=O)N2CCOCC2)cs1` [Example 2-055]: less than 30 nM; `COC1CN(S(=O)(=O)NC(=O)c2coc(Nc3cc(C(F)(F)F)ccc3C)n2)C1` [Example 2-057]: 570 nM. Same read-out and setting: next, `CCS(=O)(=O)N1CCCN(S(=O)(=O)NC(=O)c2coc(Nc3cc(C(F)(F)F)ccc3C)n2)CC1` [Example 2-064]: 26 nM; `Cc1ccc2c(c1Nc1nc(C(=O)NS(=O)(=O)N3CCOCC3)cs1)CCC2` [Example 2-084]: 140 nM. `CCCN1CCCN(S(=O)(=O)NC(=O)c2coc(Nc3cc(C(F)(F)F)ccc3C)n2)CC1` [Example 2-154]: the IC50 worked out at 230 nM. Still for that read-out and setting: next, `COC1COCCN(S(=O)(=O)NC(=O)c2coc(Nc3cc(C(F)(F)F)ccc3C)n2)C1` (single isomer, unassigned) [Example 2-218]: 72 nM. Same read-out and setting: next, `CCCC(=O)N1CCCN(S(=O)(=O)NC(=O)c2coc(Nc3cc(C(F)(F)F)ccc3C)n2)CC1` [Example 2-215]: 61 nM.

For `Cc1c(Nc2nc(C(=O)NS(=O)(=O)N3CCCOCC3)co2)c(C(C)C)nn1C(C)C` [Example 2-227], the IC50 is 1500 nM.

Take `Cc1ccc(C(F)(F)F)cc1Nc1nc(C(=O)NS(=O)(=O)N2CCCN(c3ncccn3)CC2)co1` [Example 2-183]: the IC50 was 15 nM. On the same count and under the same terms, next, `CCCS(=O)(=O)N1CCCN(S(=O)(=O)NC(=O)c2coc(Nc3cn(C(C)C)nc3C(C)C)n2)CC1` [Example 2-160]: 170 nM. On the same count and under the same terms, next, `CC(C)n1cc(Nc2nc(C(=O)NS(=O)(=O)N3CCCOCC3)co2)c(C(F)(F)F)n1` [Example 2-169]: 1700 nM; `Cc1ccc(C(F)(F)F)cc1Nc1nc(C(=O)NS(=O)(=O)N2CCCn3nccc3C2)co1` [Example 2-254]: 64 nM; `CC(C)c1ccc(C(C)C)c(Nc2nc(C(=O)NS(=O)(=O)N(C)C)co2)c1` [Example 2-070]: 120 nM. Compound `CC(C)c1cn(C(C)C)nc1Nc1nc(C(=O)NS(=O)(=O)N2CCCC2)co1` [Example 2-139] had an IC50 of 270 nM. `CC(C)c1ccc(C(F)F)cc1Nc1nc(C(=O)NS(=O)(=O)N2CCCOCC2)co1` [Example 2-106] registered a half-maximal inhibitory concentration (IC50) of 44 nM.

For `Cc1ccc(C(F)(F)F)cc1Nc1nc(C(=O)NS(=O)(=O)N2CCCN(S(=O)(=O)CC(C)C)CC2)co1` [Example 2-128], the IC50 was found to be 20 nM. On the same count and under the same terms, next, `Cc1ccc(C(F)(F)F)cc1Nc1nc(C(=O)NS(=O)(=O)N2CCNC(=O)CC2)co1` [Example 2-050]: 600 nM; `Cc1cc(C#N)c(C(F)(F)F)cc1Nc1nc(C(=O)NS(=O)(=O)N2CCCOCC2)co1` [Example 2-142]: 6300 nM. Still for that read-out and setting: next, `CCOCC1CCN(S(=O)(=O)NC(=O)c2coc(Nc3cc(C(F)F)ccc3C)n2)CCO1` (stereo not drawn) [Example 2-332]: 22 nM; `Cc1ccc(C2(C#N)CC2)cc1Nc1nc(C(=O)NS(=O)(=O)N(C)C)co1` [Example 2-094]: 270 nM; `Cc1ccc(C)c(Nc2nc(C(=O)NS(=O)(=O)N3CCCOCC3)co2)c1` [Example 2-073]: 280 nM. `Cc1ccc(C(F)(F)F)cc1Nc1nc(C(=O)NS(=O)(=O)N2CCC(S(=O)(=O)NC(C)C)CC2)co1` [Example 2-007] returned an IC50 of less than 30 nM. Turning to `CCCS(=O)(=O)N1CCCN(S(=O)(=O)NC(=O)c2coc(Nc3cc(Br)ccc3C)n2)CC1` [Example 2-292], it took 34 nM to reach half-maximal inhibition (IC50).

The same assay, now with this note: read-out: % inhibition at 3 μM.
`O=C(NS(=O)(=O)N1CCCOCC1)c1coc(Nc2cc(C(F)(F)F)ccc2Cl)n1` [Example 2-136]: the inhibition at 3 µM was -1.6%. Still for that read-out and setting: next, `Cc1cnc(C)c(Nc2nc(C(=O)NS(=O)(=O)N(C)C)co2)n1` [Example 2-086]: 17%.

For orientation: IC50 means the concentration at which inhibition is half-maximal. A higher IC50 goes with lower potency. One may read the inhibition as the drop in the measured response relative to a control, in per cent.
